Laboratory results reported in ChEMBL document CHEMBL3351804, “Development of 2-aryl substituted quinazolin-4(3H)-one, pyrido[4,3-d]pyrimidin-4(3H)-one and pyrido[2,3-d]pyrimidin-4(3H)-one derivatives as microsomal prostaglandin E(2) synthase-1 inhibitors” (Bioorg Med Chem Lett, 2014).

Experiments:
[1] = target: T1, Prostaglandin E synthase (Homo sapiens, UniProt O14684); assay: Inhibition of human recombinant mPGES-1 expressed in CHO cells using PGH2 as substrate incubated for 10 mins prior to substrate addition measured after 1 min
T1 sequence (O14684 whole entry): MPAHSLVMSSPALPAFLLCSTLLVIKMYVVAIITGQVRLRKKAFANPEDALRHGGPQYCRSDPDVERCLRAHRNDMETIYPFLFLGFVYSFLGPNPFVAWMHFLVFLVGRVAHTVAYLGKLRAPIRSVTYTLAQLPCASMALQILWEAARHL

[2] = target: T1, Prostaglandin E synthase; assay: Inhibition of mPGES-1 in human A549 cells assessed as inhibition of IL-1beta-induced PGE2 production incubated for 30 mins prior to IL-1beta challenge measured after 18 to 24 hrs; type: cell-based
[3] = target: T2, Prostaglandin E synthase (Homo sapiens) (UniProt O14684); assay: Inhibition of human recombinant mPGES-1 expressed in CHO cells using PGH2 as substrate at 10 uM incubated for 10 mins prior to substrate addition measured after 1 min; type: cell-based
T2 sequence (whole entry): T1 sequence (O14684 whole entry)

[4] = target: T2, Prostaglandin E synthase (Homo sapiens); assay: Inhibition of human recombinant mPGES-1 expressed in CHO cells using PGH2 as substrate at 1 uM incubated for 10 mins prior to substrate addition measured after 1 min
[5] = target: T1, Prostaglandin E synthase; assay: Inhibition of mPGES-1 in human whole blood assessed as inhibition of LPS-induced PGE2 production after overnight incubation
[6] = target: T1, Prostaglandin E synthase; assay: Inhibition of mPGES-1 in human A549 cells using arachidonic acid as substrate assessed as inhibition of IL-1beta/TNF-alpha-induced PGE2 production incubated for 30 mins prior to substrate addition measured after 30 mins by EIA; type: cell-based
[7] = target: T1, Prostaglandin E synthase; assay: Inhibition of mPGES-1 in human whole blood assessed as inhibition of LPS-induced PGE2 production incubated for 30 mins prior to LPS challenge measured after 20 to 24 hrs by LC/MS/MS analysis
[8] = target: T1, Prostaglandin E synthase; assay: Inhibition of mPGES-1 in human A549 cells assessed as inhibition of IL-1beta-induced PGE2 production incubated for 30 mins prior to IL-1beta challenge measured after 18 hrs by plate reader analysis; type: cell-based
[9] = target: T1, Prostaglandin E synthase; assay: Inhibition of mPGES-1 in human A549 cells; type: cell-based
[10] = target: T1, Prostaglandin E synthase; assay: Inhibition of human mPGES-1
[11] = Inhibition of guinea pig recombinant mPGES-1; parameters: species or system Cavia porcellus

CC(C)C(=O)NCc1ccc(Cl)c(-c2nc3cc(Cl)ccc3c(=O)[nH]2)c1
IC50 [1]: 42 nM

CC(C)C(=O)NCc1ccc(Cl)c(-c2nc3cc(C(F)(F)F)ccc3c(=O)[nH]2)c1
IC50 [1]: 26 nM

CC(C)C(=O)NCc1ccc(Cl)c(-c2nc3cc(Br)ccc3c(=O)[nH]2)c1
IC50 [1]: 36 nM

CC(C)C(=O)NCc1ccc(Cl)c(-c2nc3cc(N4CCC(C(F)(F)F)CC4)ccc3c(=O)[nH]2)c1
IC50 [1]: 74 nM

CC(=O)O[C@H]1CCN(c2cc3c(=O)[nH]c(-c4cc(CNC(=O)C(C)C)ccc4Cl)nc3cc2Cl)C1
IC50 [1]: 243 nM

CC(C)C(=O)NCc1cnc(C(F)F)c(-c2nc3cc(-c4ccc(C(F)(F)F)cc4)ncc3c(=O)[nH]2)c1
IC50 [2]: 111 nM | IC50 [1]: 4 nM

CC(C)C(=O)NCc1ccc(Cl)c(-c2nc3cc(F)ccc3c(=O)[nH]2)c1
inhibition [3]: 98% | inhibition [4]: 52%

O=C(Nc1ccc2cnn(-c3ccc(Br)cc3)c(=O)c2c1)c1c(F)cccc1Cl
IC50 [1]: 179 nM

CC(C)C(=O)NCc1ccc(Cl)c(-c2nc3cc(Cl)c(N4CC[C@H](O)C4)cc3c(=O)[nH]2)c1
inhibition [3]: 91% | inhibition [4]: 42%

CC(C)C(=O)NCc1ccc(Cl)c(-c2nc3ccccc3c(=O)[nH]2)c1
inhibition [3]: 67% | inhibition [4]: 17%

CC(C)C(=O)NCc1ccc(Cl)c(-c2nc3cc(Cl)c(N4CC(C(=O)NC(C)(C)C)C4)cc3c(=O)[nH]2)c1
IC50 [1]: 59 nM

CC(C)C(=O)NCc1ccc(Cl)c(-c2nc3cc(Cl)c(N4CC[C@@H](O)C4)cc3c(=O)[nH]2)c1
inhibition [3]: 95% | inhibition [4]: 67%

CC(C)C(=O)NCc1ccc(Cl)c(-c2nc3cc(C(N)=O)ccc3c(=O)[nH]2)c1
inhibition [3]: 16% | inhibition [4]: 14%

O=C(Nc1ccnc2c(Nc3ccc(C(F)(F)F)cc3)nsc12)c1c(F)cccc1Cl
IC50 [1]: 157 nM

CC(C)C(=O)NCc1ccc(Cl)c(-c2nc3cc(NC(=O)C4CC4)ccc3c(=O)[nH]2)c1
inhibition [3]: 74% | inhibition [4]: 21%

CC(C)C(=O)NCc1ccc(Cl)c(-c2nc3cc(Cl)c(-c4ccc(C(F)(F)F)cc4)cc3c(=O)[nH]2)c1
IC50 [1]: 36 nM

CC(C)C(=O)NCc1ccc(Cl)c(-c2nc3nc(-c4ccc(C(F)(F)F)cc4)ccc3c(=O)[nH]2)c1
IC50 [2]: 11 nM | IC50 [1]: 10 nM | IC50 [5]: 328 nM

CC(C)C(=O)NCc1ccc(Cl)c(-c2nc3cc(N)ccc3c(=O)[nH]2)c1
inhibition [3]: 70% | inhibition [4]: 16%

O=C(Nc1ccc(C(F)(F)F)cn1)c1cccc(NC(=O)c2ccccc2C(F)(F)F)c1
IC50 [6]: 500 nM

COc1cc2c(=O)[nH]c(-c3cc(CNC(=O)C(C)C)ccc3Cl)nc2cc1Cl
IC50 [1]: 111 nM

CC(C)C(=O)NCc1ccc(Cl)c(-c2nc3ccc(-c4ccc(C(F)(F)F)cc4)cc3c(=O)[nH]2)c1
IC50 [1]: 55 nM

CNC(=O)C1CCN(c2cc3c(=O)[nH]c(-c4cc(CNC(=O)C(C)C)ccc4Cl)nc3cc2Cl)CC1
inhibition [3]: 76% | inhibition [4]: 28%

CC(C)(C)C(=O)NCc1ccc(Cl)c(C(=O)Nc2ccc3cnn(-c4ccc(C(F)(F)F)cc4)c(=O)c3c2)c1
IC50 [1]: 5 nM

CC(C)C(=O)NCc1ccc(Cl)c(-c2nc3cc(Cl)c(-c4ccncc4)cc3c(=O)[nH]2)c1
IC50 [1]: 481 nM

CC(C)(C)C(=O)NCc1ccc(Cl)c(C(=O)Nc2ccnc3c(Nc4ccc(C(F)(F)F)cc4)nsc23)c1
IC50 [1]: 3 nM

Cc1nc(NC(=O)c2cc(CNC(=O)C(C)C)cnc2C(F)F)[nH]c1-c1ccc(C(F)(F)F)cc1
IC50 [7]: 12 nM | IC50 [8]: 12 nM

CC(C)C(=O)NCc1cnc(C(F)F)c(-c2nc3cc(-c4ccc(C(F)(F)F)cc4)ccc3c(=O)[nH]2)c1
IC50 [2]: 33 nM | IC50 [1]: 6 nM

COCc1nc2c(C(=O)Nc3cccc(Cl)c3C)cc(NC(=O)c3c(Cl)cccc3C(F)(F)F)cc2[nH]1
IC50 [9]: 1.2 nM | IC50 [10]: 0.1 nM

CC(C)C(=O)NCc1ccc(Cl)c(-c2nc3cc(Cl)c(N4CCN(C)CC4)cc3c(=O)[nH]2)c1
inhibition [3]: 75% | inhibition [4]: 41%

CC(C)C(=O)NCc1ccc(Cl)c(-c2nc3cc(C4CC4)ccc3c(=O)[nH]2)c1
IC50 [1]: 58 nM

CC(C)C(=O)NCc1ccc(Cl)c(-c2nc3cc(Cl)c(N4CCC(O)CC4)cc3c(=O)[nH]2)c1
IC50 [1]: 713 nM

CC(C)C(=O)NCc1ccc(Cl)c(-c2nc3cc(-c4ccc(C(F)(F)F)nc4)ccc3c(=O)[nH]2)c1
IC50 [2]: 23 nM | IC50 [1]: 16 nM

COc1ccc2c(=O)[nH]c(-c3cc(CNC(=O)C(C)C)ccc3Cl)nc2c1
IC50 [1]: 304 nM

CC(C)C(=O)NCc1ccc(Cl)c(-c2nc3cc(Cl)c(N4CCNC(=O)C4)cc3c(=O)[nH]2)c1
inhibition [3]: 79% | inhibition [4]: 30%

CC(C)C(=O)NCc1ccc(Cl)c(-c2nc3cc(Cl)c(C4CC4)cc3c(=O)[nH]2)c1
IC50 [1]: 32 nM

CC(C)C(=O)NCc1ccc(Cl)c(-c2nc3cc(Cl)c(N4CCC(C(F)F)CC4)cc3c(=O)[nH]2)c1
IC50 [1]: 24 nM

CC(=O)O[C@@H]1CCN(c2cc3c(=O)[nH]c(-c4cc(CNC(=O)C(C)C)ccc4Cl)nc3cc2Cl)C1
IC50 [1]: 248 nM

CC(C)C(=O)NCc1ccc(Cl)c(-c2nc3cc(-c4ccc(C(F)(F)F)cc4)ccc3c(=O)[nH]2)c1
IC50 [2]: 10 nM | IC50 [1]: 7 nM | IC50 [5]: 234 nM

CC(C)C(=O)NCc1ccc(Cl)c(-c2nc3cc(Cl)c(N4CCOCC4)cc3c(=O)[nH]2)c1
IC50 [1]: 261 nM

CC(C)C(=O)NCc1ccc(Cl)c(-c2nc3cc([N+](=O)[O-])ccc3c(=O)[nH]2)c1
IC50 [1]: 63 nM

N#Cc1cccc(C#N)c1-c1nc2c3ccc(Cl)cc3c3ccccc3c2[nH]1
IC50 [11]: 0.9 nM
